Here are results for 1 molecule from EP3698776A1, “TAMPER-RESISTANT DOSAGE FORM WITH IMMEDIATE RELEASE AND RESISTANCE AGAINST SOLVENT EXTRACTION” (Grünenthal GmbH, priority 2019, dated 2020).

Structures are written as SMILES.

The subject of data set [1] is non-dependent recreational opioid users. Briefly: Human abuse liability study, intranasal: pharmacodynamics (VAS Drug Liking, pupillometry). The class given is in vivo. As to conditions: 30 mg oxycodone HCl, Completer Set. On the procedure: The formulation according to Inventive Example 1 was tested in a human abuse liability study and compared to a commercial product and to placebo (placebo API and placebo TRF formulation).
(§1) A single-site, randomized, double-blind, double-dummy, active-comparator, placebo-controlled, 3-way crossover trial in adult non-dependent recreational opioid users was conducted to compare the intranasal abuse potential of the tablet formulation according to Inventive Example 1 and standard formulations of oxycodone.
(§2) The primary objective of the study was to compare the intranasal abuse potential of a manipulated formulation according to Inventive Example 1 and oxycodone active pharmaceutical ingredient (API) powder (representing manipulated oxycodone IR standard formulation). Primary measure: Peak effect (Emax) for Drug Liking "at this moment" on visual analog scale (VAS). The secondary objectives were to compare the pharmacokinetics (PK), further pharmacodynamic (PD) parameters, and assess safety and tolerability.
The trial design is illustrated in Figure 3 (Single-site, randomized, double-blind, double-dummy, active-comparator, placebo-controlled, 3-way crossover trial in male and female non-dependent recreational opioid users with recent intranasal use experience).
Subjects received single treatments of Test, Comparator, and Placebo in a randomized, double-blind, double-dummy, 3-way crossover. […]

A short description of data set [2]: Human abuse liability study, intranasal: pharmacokinetics. As to conditions: inhaled or intranasal, intranasal (insufflated), plasma, PK Set, read-out: median tmax. The class given is in vivo. Here is the method:
as §1, §2
Subjects received single treatments of Test, Comparator, and Placebo in a randomized, double-blind, double-dummy, 3-way crossover. Each single treatment consisted of two investigational medicinal products (IMPs), to be insufflated (snorted) in quick succession in fixed sequence:
Pharmacokinetics results are presented in Figure 7 relative to the insufflated amount of oxycodone, mean dose-normalized plasma-concentration-time profiles of Oxycodone - PK Set: […]

For the molecule `COc1ccc2c3c1O[C@H]1C(=O)CC[C@@]4(O)[C@@H](C2)N(C)CC[C@]314.Cl` [Comparator (C), oxycodone HCl], the “Peak effect (Emax) of Drug Liking "at this moment", Least Square Mean” value in data set [1] was determined as 75.0. Also, the Tmax in data set [2] came to 1.75 h.
